{"source": "patent US9446128B2", "about": "(priority 2008, dated 2016)", "tested_on": "salmonella typimurium TA100", "assay": "Microorganism reverse mutation test, strain TA100", "settings": "TA100, positive control, 1 μg/plate", "description": "The principle of this test is to make use of histidine-requiring strains that are not alive without histidine. This test is performed for detecting histidine recovery, which is original strain property, caused by mutagen in a mutant test.\nTo carry out the microorganism reverse mutation test, the test was conducted on test standard strains, salmonella typimurium TA98, TA100, TA1535 and TA1537 as pre-culture. […] The salmonella typimurium TA100 is a test strain upon the reversion of guanine and cytosine in a gene, and the salmonella typimurium TA102 is a test strain upon the reversion of adenine and thymine.\nAs a negative control group, distilled water was used.\nThe respective test materials, positive control group chemicals, distilled water were treated on a plate, and thereafter the number of revertant strains was measured.", "note": "Values joined by “and” are separate entries in the source; they are usually repeats but may differ in a detail not shown here. Equal values may be shown once.", "data": [{"smiles": "[N-]=[N+]=[N-]", "note": "[sodium azide]", "values": [{"measurement": "Average number of revertant strains", "result": "1,279 and 1,559"}, {"measurement": "Number of revertant strains", "result": "1,136 and 1,421 and 1,662 and 1,456"}]}]}
